Several values for one entry are separate records, joined by “and”; a condition that tells them apart may be missing. Equal entries are not always repeated. Entries after “also recorded” stand apart in the source; their conditions may differ. Blank lines part the entries; values can stand above or below the molecule they belong to.
Legend:
Ape1 = Ape1 (Homo sapiens, UniProt P27695); assay: Enzymatic redox assay (EMSA, AP-1 DNA binding); type: biochemical; settings: for IC50: EMSA, reduced Ape1, oxidized nuclear extracts (Hey-C2 cells), AP-1 DNA probe; for activity compared with the original carboxylic acids: hydroxyethylamides of 1 and 43a
cells = assay: Growth inhibition assay (MTS); type: cell-based; settings: for GI50: MTS, compound treatment 24 or 72 h, read-out: Cell Killing (GI50)
Protocol: Growth inhibitory data was also collected for all the compounds tested in the redox assay. Following the procedure of Fishel et al, cells were aliquoted into 96 well plates at a concentration of 2-4,000 cells/well in triplicate and allowed to adhere overnight. Cells were then treated with compound for either 24 or 72 h. 3-(4-5-Dimethylthiazol-2-yl)-5-(3-carboxymethoxyphenyl)-2-(4-sulfophenyl)-2H-tetrazolium salt (MTS) was added to the cells following compound treatment and the cells were incubated for an additional 4 hours at 37° C. After incubation with MTS the plates were measured for absorbance at 490 nm. The values were standardized to wells containing media alone.

[1] = Qualitative solubility in solvents; type: physicochemical; settings: listed solvents

Sequence of Ape1 (P27695 whole entry): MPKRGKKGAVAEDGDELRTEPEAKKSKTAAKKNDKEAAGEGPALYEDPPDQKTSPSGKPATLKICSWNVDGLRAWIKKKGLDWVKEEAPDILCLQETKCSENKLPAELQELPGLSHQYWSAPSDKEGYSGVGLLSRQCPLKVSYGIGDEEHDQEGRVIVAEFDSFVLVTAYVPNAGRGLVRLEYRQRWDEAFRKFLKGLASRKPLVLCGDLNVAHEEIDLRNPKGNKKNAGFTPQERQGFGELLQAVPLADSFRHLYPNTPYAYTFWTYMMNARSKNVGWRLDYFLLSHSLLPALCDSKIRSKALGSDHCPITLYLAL

Structure (SMILES): C[C@@H]1NC(=O)N[C@@H]1CCCCCC(=O)NCCCCCCNC(=O)OC(C)(C)C (hydrate or solvate) [Compound 111, N—(N′-tert-butoxycarbonyl-6-aminohexyl)-6-[(4R,5S)-5-methyl-imidazolidin-2-on-4-yl]hexanamide]
- melting point: 85 to 87 °C

Structure (SMILES): CC(CC1=C(Br)C(=O)c2ccccc2C1=O)C(=O)O (racemic) [Compound 69b, (2R/S)-3-(3-bromo-1,4-naphthoquinon-2-yl)-2-methylpropionic acid]
- IC50 (Ape1): 5 µM
- GI50 (cells): 15 µM

Structure (SMILES): CCCCCCCCC/C(=C\C1=C(C)C(=O)C(OC)=C(OC)C1=O)C(=O)O [Compound 1, (E)-3-(4,5-dimethoxy-2-methyl-3,6-dioxocyclohexa-1,4-dienyl)-2-nonylpropenoic acid, reference compound]
- GI50 (cells): 35 µM

Structure (SMILES): COC1=C(OC)C(=O)C(/C=C/C(=O)O)=C(C)C1=O [Compound 10a, (E)-3-(4,5-dimethoxy-2-methyl-3,6-dioxocyclohexa-1,4-dienyl)-propenoic acid]
- IC50 (Ape1): 40 µM
- GI50 (cells): 250 µM

Structure (SMILES): COC1=C(OC)C(=O)C(/C=C(\C)C(=O)O)=C(C)C1=O [Compound 10b, (E)-3-(4,5-dimethoxy-2-methyl-3,6-dioxocyclohexa-1,4-dienyl)-2-methylpropenoic acid]
- IC50 (Ape1): 3 to 15 µM and 3 µM
- GI50 (cells): 130 µM
- melting point: 134 to 136 °C

Structure (SMILES): CC/C(=C\C1=C(C)C(=O)C(OC)=C(OC)C1=O)C(=O)O [Compound 10c, (E)-3-(4,5-dimethoxy-2-methyl-3,6-dioxocyclohexa-1,4-dienyl)-2-ethylpropenoic acid]
- melting point: 124 to 131 °C

Structure (SMILES): CCC/C(=C\C1=C(C)C(=O)C(OC)=C(OC)C1=O)C(=O)O [Compound 10d, (E)-3-(4,5-dimethoxy-2-methyl-3,6-dioxocyclohexa-1,4-dienyl)-2-propylpropenoic acid]
- melting point: 95 to 99 °C

Structure (SMILES): CCCC/C(=C\C1=C(C)C(=O)C(OC)=C(OC)C1=O)C(=O)O [Compound 10e, (E)-3-(4,5-dimethoxy-2-methyl-3,6-dioxocyclohexa-1,4-dienyl)-2-butylpropenoic acid]
- IC50 (Ape1): 3 to 15 µM and 15 µM
- GI50 (cells): 85 µM
- melting point: 54 to 55 °C

Structure (SMILES): COC1=C(OC)C(=O)C(/C=C(\C)C(=O)O)=C(Cl)C1=O [Compound 23, (E)-3-(2-chloro-4,5-dimethoxy-3,6-dioxocyclohexa-1,4-dienyl)-2-methylpropenoic acid]
- IC50 (Ape1): 2.5 µM
- cell-based activity superior to the methyl derivative 10b, factor (cells; GI50 ratio): 3
- GI50 (cells): 45 µM
- melting point: 183 to 185 °C

Structure (SMILES): CCC/C(=C\C1=CC(=O)c2ccccc2C1=O)C(=O)O [Compound 30b, (E)-3-(1,4-naphthoquinon-2-yl)-2-propylpropenoic acid]
- melting point: 156 to 160 °C

Structure (SMILES): CCCC/C(=C\C1=C(C)C(=O)c2ccccc2C1=O)C(=O)O [Compound 35b, (E)-3-(3-methyl-1,4-naphthoquinon-2-yl)-2-butylpropenoic acid]
- IC50 (Ape1): 25 µM
- GI50 (cells): 40 µM
- melting point: 119 to 121 °C

Structure (SMILES): CCCCCCCCC/C(=C\C1=C(C)C(=O)c2ccccc2C1=O)C(=O)O [Compound 35c, (E)-3-(3-methyl-1,4-naphthoquinon-2-yl)-2-nonylpropenoic acid]
- melting point: 64 to 66 °C

Structure (SMILES): COCC/C(=C\C1=C(C)C(=O)c2ccccc2C1=O)C(=O)O [Compound 62a, (E)-3-(3-methyl-1,4-naphthoquinon-2-yl)-2-methoxyethylpropenoic acid]
- IC50 (Ape1): 10 µM
- GI50 (cells): 30 µM
- melting point: 147 to 148 °C

Structure (SMILES): COCC/C(=C\C1=C(C)C(=O)C(OC)=C(OC)C1=O)C(=O)O [Compound 64, (E)-3-(4,5-dimethoxy-2-methyl-3,6-dioxocyclohexa-1,4-dienyl)-2-methoxyethylpropenoic acid]
- IC50 (Ape1): 10 µM
- GI50 (cells): 200 µM
- melting point: 104 to 106 °C

Structure (SMILES): O=C(O)CCC1=C(Br)C(=O)c2ccccc2C1=O [Compound 69a, 3-(3-Bromo-1,4-naphthoquinon-2-yl)-propionic acid]
- IC50 (Ape1): 5 µM
- GI50 (cells): 15 µM
- melting point: 156 to 157 °C

Structure (SMILES): CCCCCCCCC/C(=C\C1=C(C)C(=O)C(OC)=C(OC)C1=O)C(=O)NCCO [Compound 72, (E)-N-(2-hydroxyethyl)-3-(3,4-dimethoxy-2-methyl-3,6-dioxocyclohexa-1,4-dienyl)-2-nonylpropenamide]
- IC50 (Ape1): 10 µM
- activity compared with the original carboxylic acids (Ape1): comparable in activity to the original carboxylic acids
- GI50 (cells): 35 µM

Structure (SMILES): C/C(=C\C1=C(Cl)C(=O)c2ccccc2C1=O)C(=O)NCCO [Compound 73, (E)-N-(2-hydroxyethyl)-3-(3-chloro-1,4-dioxonaphthoquinon-2-yl)-2-methylpropenamide]
- activity compared with the original carboxylic acids (Ape1): comparable in activity to the original carboxylic acids
- GI50 (cells): 7.5 µM

Structure (SMILES): CC(C)(C)OC(=O)NCCCCCCNC(=O)CCCC[C@H]1[C@H]2NC(=O)N[C@H]2CS1(=O)=O [Compound 110, N—(N′-tert-butoxycarbonyl-6-aminohexyl)-5-((1R,5S,6S)-3,7,7-trioxo-7-thia-2,4-diazabicyclo[3.3.0]oct-6-yl)pentanamide]
- solubility (qualitative) [1]: Insoluble: CH2Cl2, acetone, NaOH aq; also recorded: Mildly Soluble MeOH, EtOH; also recorded: Soluble: DMSO
- melting point: 213 to 215 °C

Structure (SMILES): C[C@@H]1NC(=O)N[C@@H]1CCCCCC(=O)NCCCCCCNC(=O)OC(C)(C)C [Compound 111, N—(N′-tert-butoxycarbonyl-6-aminohexyl)-6-[(4R,5S)-5-methyl-imidazolidin-2-on-4-yl]hexanamide]
- solubility (qualitative) [1]: Insoluble: EtOAc, Et2O, H2O, NaOH aq; also recorded: Soluble: acetone, CH2Cl2

Structure (SMILES): C[C@@H]1NC(=O)N[C@@H]1CCCCCC(=O)O [Desthiobiotin, 6-[(4R,5S)-5-methyl-imidazolidin-2-on-4-yl]hexanoic acid, reference compound]
- solubility (qualitative) ([1]; listed as 93): Insoluble: CH2Cl2, H2O, acetone; also recorded: Soluble: NaOH aq

Further lines, with some results ahead:

- IC50 (Ape1): 4 µM
Structure (SMILES): CC1(C(=O)O)OC1C1=C(Cl)C(=O)c2ccccc2C1=O (mixture of isomers) [Compound 71, 3-(3-chloro-1,4-naphthoquinon-2-yl)-2-epoxy-2-methylpropionic acid]
- GI50 (cells): 10 µM

- IC50 (Ape1): 2.5 µM
Structure (SMILES): C/C(=C\C1=CC(=O)c2ccccc2C1=O)C(=O)O [Compound 30a, (E)-3-(1,4-naphthoquinon-2-yl)-2-methylpropenoic acid]
- GI50 (cells): 20 µM

- IC50 (Ape1): 15 µM
- melting point: 195 to 196 °C
Structure (SMILES): CC1=C(/C=C(\C)C(=O)O)C(=O)c2ccccc2C1=O [Compound 35a, (E)-3-(3-methyl-1,4-naphthoquinon-2-yl)-2-methylpropenoic acid]
- GI50 (cells): 45 µM

- IC50 (Ape1): 2 µM
Structure (SMILES): C/C(=C\C1=C(Br)C(=O)c2ccccc2C1=O)C(=O)O [Compound 39a, (E)-3-(3-bromo-1,4-naphthoquinon-2-yl)-2-methylpropenoic acid]
- GI50 (cells): 12.5 µM

- melting point: 145 °C (dec.)
Structure (SMILES): CCC/C(=C\C1=C(Br)C(=O)c2ccccc2C1=O)C(=O)O [Compound 39b, (E)-3-(3-bromo-1,4-naphthoquinon-2-yl)-2-propylpropenoic acid]

- IC50 (Ape1): 1 µM
- melting point: 229 to 230 °C
Structure (SMILES): C/C(=C\C1=C(Cl)C(=O)c2ccccc2C1=O)C(=O)O [Compound 43a, (E)-3-(3-chloro-1,4-naphthoquinon-2-yl)-2-methylpropenoic acid]
- GI50 (cells): 15 µM

- melting point: 164 °C (dec.)
Structure (SMILES): CCC/C(=C\C1=C(Cl)C(=O)c2ccccc2C1=O)C(=O)O [Compound 43b, (E)-3-(3-chloro-1,4-naphthoquinon-2-yl)-2-propylpropenoic acid]

- IC50 (Ape1): 4 µM
Structure (SMILES): C/C(=C\C1=C(F)C(=O)c2ccccc2C1=O)C(=O)O [Compound 52, (E)-3-(3-fluoro-1,4-naphthoquinon-2-yl)-2-methylpropenoic acid]
- GI50 (cells): 50 µM

- IC50 (Ape1): 0.5 µM
- melting point: 205 °C (dec.)
Structure (SMILES): COC1=C(/C=C(\C)C(=O)O)C(=O)c2ccccc2C1=O [Compound 55, (E)-3-(3-methoxy-1,4-naphthoquinon-2-yl)-2-methylpropenoic acid]
- GI50 (cells): 40 µM

- IC50 (Ape1): 1 µM
- melting point: 195 to 196 °C
Structure (SMILES): CSC1=C(/C=C(\C)C(=O)O)C(=O)c2ccccc2C1=O [Compound 58, (E)-3-(3-methylsulfanyl-1,4-naphthoquinon-2-yl)-2-methylpropenoic acid]
- GI50 (cells): 30 µM

- IC50 (Ape1): 0.5 µM
- melting point: 168 to 172 °C
Structure (SMILES): COCC/C(=C\C1=C(Br)C(=O)c2ccccc2C1=O)C(=O)O [Compound 62b, (E)-3-(3-bromo-1,4-naphthoquinon-2-yl)-2-methoxyethylpropenoic acid]
- GI50 (cells): 25 µM

- IC50 (Ape1): 3 µM
- melting point: 160 °C (dec.)
Structure (SMILES): COCC/C(=C\C1=C(Cl)C(=O)c2ccccc2C1=O)C(=O)O [Compound 62c, (E)-3-(3-chloro-1,4-naphthoquinon-2-yl)-2-methoxyethylpropenoic acid]
- GI50 (cells): 30 µM

- IC50 (Ape1): 1 µM
Structure (SMILES): COC(=O)/C(C)=C/C1=C(Cl)C(=O)c2ccccc2C1=O [Compound E-44a]
- GI50 (cells): 17.5 µM

- IC50 (Ape1): 1.5 µM
- melting point: 166 to 169 °C
Structure (SMILES): C/C(=C/C1=C(Cl)C(=O)c2ccccc2C1=O)C(=O)O [Compound Z-43a, (2Z)-3-(3-chloro-1,4-naphthoquinon-2-yl)-2-methylpropenoic acid]
- GI50 (cells): 30 µM

- IC50 (Ape1): 2 µM
Structure (SMILES): COC(=O)/C(C)=C\C1=C(Cl)C(=O)c2ccccc2C1=O [Compound Z-44a, Methyl (2Z)-3-(3-chloro-1,4-naphthoquinon-2-yl)-2-methylpropenoate]
- GI50 (cells): 20 µM

Reference: patent US9089605B2, “Quinone derivatives, pharmaceutical compositions, and uses thereof” (Indiana University Research and Technology Corporation, priority 2007, dated 2015)
